# PMC10968448, “An In Silico and In Vitro Assessment of the Neurotoxicity of Mefloquine” (Biomedicines, 2024)
# Counter-ions that a name gives are not always drawn.
# Tests used:
# SH-SY5Y cells [1] = experiment: ROS generation, DCFDA assay; type: cell-based, human; settings: 10 mM NAC with MQ 0.1–10 µM, 3 h
# [2] = design: method as in PMID 21118921; settings: healthy male and female volunteers; cited from earlier work
# [3] = design: method as in PMID 32639233; settings: overdose; cited from earlier work
# [4] = human, in vivo, cited from earlier work
# SH-SY5Y cells [5] = experiment: MTT assay of cell metabolic activity/viability; type: cell-based, human; settings: for increase of cell metabolic activity (MTT): 6 h, p < 0.0001; for IC50: Homo sapiens, SH-SY5Y cells, non-linear regression
# [6] = molecular target: 5-hydroxytryptamine-3 (5-HT3) (serotonin) receptors; design: method as in PMID 17502851; settings: non-competitive inhibitor; cited from earlier work
# KYSE150 cells = tested on: KYSE150 cells; design: method as in PMID 32850358; settings: 10 µM MQ, KYSE150 oesophageal squamous cell carcinoma cell line; cited from earlier work
# human BuChE enzyme = human BuChE enzyme (Homo sapiens, UniProt P06276); experiment: biochemical; type: biochemical
# Sequence of human BuChE enzyme (P06276 29-602): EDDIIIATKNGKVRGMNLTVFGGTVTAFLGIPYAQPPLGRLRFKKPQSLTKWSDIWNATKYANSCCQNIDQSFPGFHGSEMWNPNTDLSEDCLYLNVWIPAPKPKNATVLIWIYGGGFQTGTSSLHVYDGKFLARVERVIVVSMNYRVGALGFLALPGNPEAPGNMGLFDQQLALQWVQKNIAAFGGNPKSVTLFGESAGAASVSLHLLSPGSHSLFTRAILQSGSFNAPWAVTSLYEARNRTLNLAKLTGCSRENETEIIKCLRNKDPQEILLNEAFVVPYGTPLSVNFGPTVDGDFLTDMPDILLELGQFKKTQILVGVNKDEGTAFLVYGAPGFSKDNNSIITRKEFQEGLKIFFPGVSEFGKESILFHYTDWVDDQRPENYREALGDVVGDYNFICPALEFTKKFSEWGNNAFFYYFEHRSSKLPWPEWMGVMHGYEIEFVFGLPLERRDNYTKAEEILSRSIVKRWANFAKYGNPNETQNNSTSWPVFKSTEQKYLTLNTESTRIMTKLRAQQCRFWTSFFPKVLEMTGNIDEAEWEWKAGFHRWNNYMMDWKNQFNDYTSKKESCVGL
# SH-SY5Y cells [7] = experiment: Flow cytometric assessment of cell death, Annexin V-FITC/PI; type: cell-based, human
# SH-SY5Y cells [8] = experiment: LDH cytotoxicity assay (extracellular LDH); type: cell-based, human; settings: for IC50: Homo sapiens
# human (recombinant) AChE = tested on: human (recombinant) AChE; design: method as in PMID 16288931; settings: 10 µM MQ; cited from earlier work
# SH-SY5Y cells [9] = tested on: SH-SY5Y cells; design: method as in PMID 22465322; settings: 10 µM MQ, 24 h; cited from earlier work
# SH-SY5Y cells [10] = experiment: Cellular ATP bioluminescence assay (cellular bioenergetics); type: cell-based, human; settings: for IC50: Homo sapiens
# [11] = tested on: AChE of electric eel origin; design: method as in PMID 3878759; settings: proposed non-competitive inhibitor; cited from earlier work
# SH-SY5Y cells [12] = experiment: Mitochondrial membrane potential (MMP) assay, MitoTracker Green FM; type: cell-based, human; settings: 48 h exposure
# [13] = molecular target: human AChE enzyme (recombinant) (Homo sapiens, UniProt P22303); experiment: biochemical; type: biochemical
# Sequence of human AChE enzyme (recombinant) (P22303 32-614): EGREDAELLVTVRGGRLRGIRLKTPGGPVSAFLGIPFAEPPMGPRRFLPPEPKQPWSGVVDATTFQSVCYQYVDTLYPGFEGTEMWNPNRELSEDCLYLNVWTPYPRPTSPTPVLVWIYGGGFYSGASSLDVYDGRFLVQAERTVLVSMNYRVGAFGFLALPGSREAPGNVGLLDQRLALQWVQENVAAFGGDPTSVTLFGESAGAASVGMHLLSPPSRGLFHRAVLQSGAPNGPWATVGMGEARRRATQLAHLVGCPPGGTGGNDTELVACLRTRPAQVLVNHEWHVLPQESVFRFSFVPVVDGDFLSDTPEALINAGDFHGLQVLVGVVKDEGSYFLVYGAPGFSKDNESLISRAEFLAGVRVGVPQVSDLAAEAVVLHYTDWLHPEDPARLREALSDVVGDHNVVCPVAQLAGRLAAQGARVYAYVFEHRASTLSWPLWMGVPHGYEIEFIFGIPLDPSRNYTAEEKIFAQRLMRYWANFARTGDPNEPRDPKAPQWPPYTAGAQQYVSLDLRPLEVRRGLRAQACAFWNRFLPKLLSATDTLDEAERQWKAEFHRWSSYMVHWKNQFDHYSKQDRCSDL
# [14] = SH-SY5Y cells, 6 h exposure, non-linear regression
# [15] = SH-SY5Y cells, 24 h exposure, non-linear regression
# [16] = SH-SY5Y cells, 48 h exposure, non-linear regression
compound,measurement,setting,value
"CC(=O)N[C@@H](CS)C(=O)O [NAC, N-acetylcysteine]",effect of antioxidant co-treatment on MQ-induced ROS production,SH-SY5Y cells [1],significantly inhibited MQ-induced ROS production
"O[C@H](c1cc(C(F)(F)F)nc2c(C(F)(F)F)cccc12)[C@@H]1CCCCN1 (single isomer, unassigned) [+-MQ enantiomer]",safety and tolerability compared with the racemate,[2],more favourable profile for mood and sleep
CCN(CC)CCCC(C)Nc1ccnc2cc(Cl)ccc12 (stereo not drawn) [chloroquine],whole blood concentration associated with 1% mortality,[3],13.5 µM
"O[C@H](c1cc(C(F)(F)F)nc2c(C(F)(F)F)cccc12)[C@@H]1CCCCN1 (racemic) [MQ, (R*,S*)-(+/−)-α-2-Piperidyl-2,8-bis(trifluoromethyl)quinoline-4-methanol monohydrochloride]",time of peak concentration in the blood,[4]; po,7 to 24 h
same,terminal half-life,[4],14 to 15 days
same,increase of cell metabolic activity (MTT),SH-SY5Y cells [5]; 1 µM MQ,27%
same,increase of cell metabolic activity (MTT),SH-SY5Y cells [5]; 10 µM MQ,approximately 29%
same,reduction of cell metabolic activity (MTT),"SH-SY5Y cells [5]; 10 µM MQ, 48 h, p = 0.024",13.6%
same,threshold concentration for significant reduction in viability,SH-SY5Y cells [5]; 48 h exposure,~10 µM
same,IC50,SH-SY5Y cells [5]; 6 h exposure,67.1 µM
same,IC50,SH-SY5Y cells [5]; 24 h exposure,23.9 µM
same,IC50,SH-SY5Y cells [5]; 48 h exposure,14.2 µM
same,threshold concentration for toxicity to neuroblastoma cells (MTT),"SH-SY5Y cells [5]; all time points examined (6, 24, 48 h)",≥ 25 µM
same,IC50,[6],~10 µM
same,effect on cell number,KYSE150 cells,reduces the cell number
same,inhibition at 100 µM,human BuChE enzyme; 100 µM MQ,18%
same,concentration from which BuChE activity is significantly reduced,human BuChE enzyme; MQ 1–100 µM assayed,≥ 25 µM
same,reduction in BuChE enzymatic activity,human BuChE enzyme; MQ exposures of between 1 and 25 µM,approximately 10%
same,concentration at which increase in apoptotic cells reached significance,SH-SY5Y cells [7]; 6 h exposure,50 µM
same,concentration at which increase in apoptotic cells reached significance,SH-SY5Y cells [7]; 24 h exposure,20 µM
same,extracellular LDH production,"SH-SY5Y cells [8]; 0.1 to 10 µM MQ, except 10 µM after 48 h",no significant LDH production
same,extracellular LDH levels,"SH-SY5Y cells [8]; 25, 50 and 100 µM MQ",dramatic increase
same,IC50,"SH-SY5Y cells [8]; SH-SY5Y, 24 h exposure",~16 µM
same,IC50,SH-SY5Y cells [8]; [14],26.2 µM
same,IC50,SH-SY5Y cells [8]; [15],16.2 µM
same,IC50,SH-SY5Y cells [8]; [16],11.7 µM
same,inhibition of human (recombinant) AChE,human (recombinant) AChE,< 10%
same,reduction of cell viability (MTT),SH-SY5Y cells [9],approximately 20%
same,concentration from which cellular ATP is significantly reduced,SH-SY5Y cells [10]; 6 h exposure,≥ 1 µM
same,concentration from which cellular ATP is significantly reduced,SH-SY5Y cells [10]; 48 h exposure,≥ 0.1 µM
same,IC50,"SH-SY5Y cells [10]; SH-SY5Y, 24 h exposure",~6 µM
same,IC50,SH-SY5Y cells [10]; [14],10.2 µM
same,IC50,SH-SY5Y cells [10]; [15],4.73 µM
same,IC50,SH-SY5Y cells [10]; [16],3.19 µM
same,inhibition of electric eel AChE,[11],weak inhibitor
same,concentration at which the MMP is significantly altered,SH-SY5Y cells [12],10 µM
same,inhibition at 1 µM,[13]; 1 µM MQ,9.8%
same,inhibition at 10 µM,"[13]; 10 µM MQ, significant",20.5%
same,concentration from which AChE activity is significantly reduced,[13]; MQ 1–100 µM assayed,≥ 10 µM
